This experiment concerns ICAM-1. The experiment can be described thus: ICAM-1 expression on endothelial cells (immunofluorescence, FACScan). The format is cell-based, human. On the procedure:
In a first series of experiments, PF4 and βpep peptides were tested for their ability to prevent bFGF (fibroblast growth factor) mediated downregulation of ICAM-1. […] Simultaneously 100 μg/ml of each PF4, βpep-14, βpep-16, or medium was added. Mean ICAM-1 fluorescence intensity values were determined.
Since the in vivo situation of tumor associated EC involves the low expression or even absence of ICAM-1, the next set of experiments aimed to study the ability to reinduce ICAM-I expression after bFBF preincubation. […] In these experiments, HUVEC were pretreated for 3 days with bFGF, subsequently PF4 was added for 3 days and, where indicated in the last 16 hours of culture 4 ng/ml TNFα was added. Human umbilical vein derived endothelial cells (HUVEC) were harvested from normal human umbilical cords by perfusion with 0.125% trypsin/EDTA as described previously. Cells were cultured in fibronectin (FN) coated tissue culture flasks in culture medium (RPMI-1640 with 20% human serum (HS), supplemented with 2 mM glutamine and 100 U/ml penicillin and 0.1 mg/ml streptomycin). Immunofluorescence using indirect PE-conjugated reagents required three separate incubations. 1×10^5 EC were fixed for 1 hour in 1% paraformaldehyde, resuspended in 20 μl appropriately diluted Mab and incubated for 1 hour on ice. Subsequently, cells were washed two times in PBS/BSA (0.1%) and incubated for another 30 minutes with biotinylated rabbit-anti-mouse Ig (Dako, Glostrup, Denmark). After another 2 washings, cells were incubated with streptavidin-phycoerythrin conjugate (Dako). Stained cells were analyzed on a FACScan flowcytometer. Data analysis was performed using PCLysys software (Becton Dickinson, Mountain View, Calif.). Statistical significance of observed differences was determined using the Student's t-test.
The energy of EC to stimulation with inflammatory cytokines was the subject of a next series of experiments. For these experiments, HUVEC (human vascular endothelial cells) were pretreated with 10 ng/ml bFGF for 3 days. Subsequently, cells are subcultured for 3 days with […] in the presence of PF4. For the last 16 hours of the culture 4 ng/ml TNFα was added to induce upregulation of ICAM-1. […] The regulation of ICAM-1 at the protein level was confirmed in Northern blot analysis for detection of ICAM-1 message. In these experiments, HUVEC were cultured for 3 days with bFGF and treated for the last 4 and 24 hours with PF4 (100 μg/ml). TNFα was added 2 hours before isolation of RNA. RNA from a subconfluent EC cultures (75 cm^2 Petri-dishes) incubated with bFGF for different time-points was isolated using an RNA-zol kit (Campro Scientific, Houston, Tex.). Total RNA (10 μg) for each sample was separated in a 0.8% formaldehyde-denaturing gel, transferred to nitrocellulose (Hybond N+, Amersham International, Amersham, UK) and hybridized to a ^32P-labelled 1.9 Kb c-DNA probe, containing the functional sequence of the human ICAM-1 gene (a gift from Dr. B. Seed). Membranes were washed at a high stringency in 0.2×SSC, 0.1% SDS at 50° C. for 1 hour. Filters were exposed to X-ray films (Kodak X-omat, Eastman Kodak Company, Rochester, N.Y.) using an intensifying screen at −80° C. for not less than 12 hr. Autoradiograms were subjected to scanning using a laser densitometer (Model GS670, Bio-Rad, Hercules, Calif.) and data were analysed with the Molecular Analyst PC™ software. The intensity of the major ICAM-1 mRNA transcript was normalized with respect to actin mRNA expression used as a control.

For the substance platelet factor 4 [PF4], the “bFGF mediated downregulation of ICAM-1 (in words)” value (10 ng/ml bFGF for 3 days, 100 μg/ml added simultaneously) is recorded as “did not result in the loss of ICAM-1 expression”. Besides, the “expression of ICAM-1 (in words)” value (100 μg/ml, without bFGF) is “enhanced the expression of ICAM-1”. Besides, the “decreased inflammatory response (TNFα upregulation of ICAM-1) of angiogenic stimulated EC (in words)” value (HUVEC 3 days 10 ng/ml bFGF, then 3 days with bFGF and test agent, 4 ng/ml TNFα last 16 hours) is recorded as “overcome”. Further, the “reinduction of ICAM-1 expression after bFGF preincubation (in words)” value (HUVEC pretreated 3 days with bFGF, then 100 μg/ml for 3 days in the presence of bFGF) was “reinduction of ICAM-1”.

(Values after patent publication US7030087B2, “Synthetic approach to designed chemical structures” (priority 1996, dated 2006).)
